Experimental data taken from US8471005B2 (Cephalon, Inc., priority 2008, dated 2013).
Read-outs that look alike come from different tables or passages of the source.

What was measured:
[1] = molecular target: T1, JAK2 (Homo sapiens, UniProt O60674); assay: Recombinant Human JAK2 Kinase Assay (TRF); assay type: biochemical; conditions: read-out: JAK2 Potency
T1 construct: host or cells: baculovirus expression system
In short: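 TRF read-out: Eu-N1 PY100 anti-phosphotyrosine antibody detects product. Enzyme is baculovirus-expressed JAK2 at 15 ng/ml; substrate is a biotinyl 15-mer peptide bound to Neutravidin-coated wells. Buffer 20 mM HEPES pH 7.2, 0.2 μM ATP, 1 mM MnCl2, 0.1% BSA, 2.5% DMSO final; 20 min, RT.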

[2] = molecular target: T2, ALK (Homo sapiens, UniProt Q9UM73); assay: ALK Kinase Assay (ELISA/TRF, PLC-γ substrate); assay type: biochemical; conditions: read-out: ALK Potency
T2 construct: host or cells: baculovirus expression system
T2 sequence (Q9UM73 19-1620): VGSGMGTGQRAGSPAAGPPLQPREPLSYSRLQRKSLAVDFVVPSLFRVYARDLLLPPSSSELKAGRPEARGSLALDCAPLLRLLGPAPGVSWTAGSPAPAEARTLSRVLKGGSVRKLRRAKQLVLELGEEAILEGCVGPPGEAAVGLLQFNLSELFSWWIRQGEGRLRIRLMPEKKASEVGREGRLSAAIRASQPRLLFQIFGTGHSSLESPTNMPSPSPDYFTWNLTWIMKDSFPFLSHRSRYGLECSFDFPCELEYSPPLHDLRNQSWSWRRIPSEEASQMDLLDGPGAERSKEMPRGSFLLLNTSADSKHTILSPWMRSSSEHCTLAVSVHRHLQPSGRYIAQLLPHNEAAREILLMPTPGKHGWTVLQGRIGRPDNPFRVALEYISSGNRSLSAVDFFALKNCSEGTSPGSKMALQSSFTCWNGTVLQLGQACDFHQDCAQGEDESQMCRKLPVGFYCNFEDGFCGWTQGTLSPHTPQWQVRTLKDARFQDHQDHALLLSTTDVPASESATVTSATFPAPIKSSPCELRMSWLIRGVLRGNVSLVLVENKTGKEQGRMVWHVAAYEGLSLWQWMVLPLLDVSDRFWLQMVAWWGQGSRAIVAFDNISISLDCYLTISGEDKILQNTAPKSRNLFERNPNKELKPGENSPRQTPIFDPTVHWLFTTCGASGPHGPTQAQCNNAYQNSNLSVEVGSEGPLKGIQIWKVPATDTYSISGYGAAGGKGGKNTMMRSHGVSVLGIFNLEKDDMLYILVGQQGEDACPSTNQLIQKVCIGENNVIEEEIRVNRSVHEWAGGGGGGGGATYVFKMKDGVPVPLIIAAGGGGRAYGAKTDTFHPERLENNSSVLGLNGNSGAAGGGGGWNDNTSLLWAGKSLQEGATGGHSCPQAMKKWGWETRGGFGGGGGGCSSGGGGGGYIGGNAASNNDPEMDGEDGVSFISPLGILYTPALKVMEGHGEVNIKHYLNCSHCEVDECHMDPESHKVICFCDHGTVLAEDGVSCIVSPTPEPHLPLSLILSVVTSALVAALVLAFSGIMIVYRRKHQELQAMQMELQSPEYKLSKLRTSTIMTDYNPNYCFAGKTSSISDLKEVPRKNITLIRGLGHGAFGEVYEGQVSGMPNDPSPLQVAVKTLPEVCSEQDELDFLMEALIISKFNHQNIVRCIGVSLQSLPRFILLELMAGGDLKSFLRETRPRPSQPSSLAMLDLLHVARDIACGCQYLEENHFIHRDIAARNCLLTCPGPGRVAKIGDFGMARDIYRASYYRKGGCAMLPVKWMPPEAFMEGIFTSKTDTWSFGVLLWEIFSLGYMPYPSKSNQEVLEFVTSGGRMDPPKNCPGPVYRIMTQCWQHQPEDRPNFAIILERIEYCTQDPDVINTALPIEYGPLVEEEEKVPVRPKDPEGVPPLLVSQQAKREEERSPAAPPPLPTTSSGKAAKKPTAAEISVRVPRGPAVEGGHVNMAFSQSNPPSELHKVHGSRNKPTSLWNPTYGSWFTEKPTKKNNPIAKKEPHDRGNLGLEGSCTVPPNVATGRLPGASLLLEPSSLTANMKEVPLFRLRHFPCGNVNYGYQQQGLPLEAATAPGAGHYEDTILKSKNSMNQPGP
In short: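 Read-out is time-resolved fluorescence from a Eu-N1-labeled PT66 antibody that binds phosphorylated PLC-γ, the substrate coated at 10 μg/mL in TBS. ALK at 30 ng/ml starts the reaction, which runs 15 minutes at 37° C.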

[3] = JAK2 kinase inhibition, 0.2 μM ATP
[4] = ALK kinase inhibition, 1 μM ATP

T1 sequence (O60674 whole entry): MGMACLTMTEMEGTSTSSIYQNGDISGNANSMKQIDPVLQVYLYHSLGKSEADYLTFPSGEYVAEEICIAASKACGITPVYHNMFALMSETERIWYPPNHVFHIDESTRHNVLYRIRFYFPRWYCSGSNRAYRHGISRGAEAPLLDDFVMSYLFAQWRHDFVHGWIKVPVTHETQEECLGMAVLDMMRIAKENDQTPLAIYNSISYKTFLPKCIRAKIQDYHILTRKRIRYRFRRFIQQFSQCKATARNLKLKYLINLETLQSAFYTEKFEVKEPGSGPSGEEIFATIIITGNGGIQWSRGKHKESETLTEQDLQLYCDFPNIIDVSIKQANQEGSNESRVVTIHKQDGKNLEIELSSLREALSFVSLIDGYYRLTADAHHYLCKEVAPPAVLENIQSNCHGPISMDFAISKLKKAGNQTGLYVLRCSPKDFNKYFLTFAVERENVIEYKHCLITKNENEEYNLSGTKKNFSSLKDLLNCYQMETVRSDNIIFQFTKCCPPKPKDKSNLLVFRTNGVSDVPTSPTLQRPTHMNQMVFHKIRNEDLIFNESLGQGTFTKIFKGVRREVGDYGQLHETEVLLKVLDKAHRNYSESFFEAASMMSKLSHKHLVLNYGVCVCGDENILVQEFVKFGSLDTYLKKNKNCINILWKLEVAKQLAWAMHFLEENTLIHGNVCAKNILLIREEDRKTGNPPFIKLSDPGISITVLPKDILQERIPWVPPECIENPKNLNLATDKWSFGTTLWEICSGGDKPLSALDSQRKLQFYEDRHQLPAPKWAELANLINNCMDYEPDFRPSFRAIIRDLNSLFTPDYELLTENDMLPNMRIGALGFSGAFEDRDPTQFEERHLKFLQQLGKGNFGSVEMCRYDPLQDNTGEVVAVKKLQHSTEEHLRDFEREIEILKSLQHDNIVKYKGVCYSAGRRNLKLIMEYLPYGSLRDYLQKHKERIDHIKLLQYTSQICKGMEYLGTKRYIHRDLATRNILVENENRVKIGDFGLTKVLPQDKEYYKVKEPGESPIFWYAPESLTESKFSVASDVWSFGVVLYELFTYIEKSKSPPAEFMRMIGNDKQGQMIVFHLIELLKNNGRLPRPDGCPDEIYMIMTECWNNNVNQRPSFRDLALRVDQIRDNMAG

SMILES	IC50 [1, 3]	IC50 [2, 4]	IC50 ([1]; JAK2 Kinase Inhibition)	IC50 ([2]; ALK Kinase Inhibition)
COc1cc(CN2CCN(C[C@H](C)O)CC2)ccc1Nc1ncc2ccc(-c3ccccc3N(C)S(C)(=O)=O)n2n1 [Example 1224, N-[2-(2-{4-[4-((S)-2-Hydroxy-propyl)-piperazin-1-ylmethyl]-2-methoxy-phenylamino}-pyrrolo[2,1-f][1,2,4]triazin-7-yl)-phenyl]-N-methyl-methanesulfonamide]	1000 to 10000 nM	< 100 nM		
COc1cc(N2CCC[C@@H](C(=O)N3CCN(C)CC3)C2)ccc1Nc1ncc2ccc(-c3ccccc3N(C)S(C)(=O)=O)n2n1 [Example 462, N-[2-(2-{2-Methoxy-4-[(R)-3-(4-methyl-piperazine-1-carbonyl)-piperidin-1-yl]-phenylamino}-pyrrolo[2,1-f][1,2,4]triazin-7-yl)-phenyl]-N-methyl-methanesulfonamide]			100 to 1000 nM	< 100 nM
O=S1(=O)CCCN1c1cccc(-c2ccc3cnc(Nc4cccc(-n5cccn5)c4)nn23)c1 [Example 1506, 7-[3-(1,1-Dioxido-1,2-thiazolidin-2-yl)phenyl]-N-[3-(1H-pyrazol-1-yl)phenyl]pyrrolo[2,1-f][1,2,4]triazin-2-amine]			< 100 nM	> 10000 nM
COc1cc(N2CCC(N3CCN(C(=O)OCc4ccccc4)CC3)CC2)ccc1Nc1ncc2ccc(-c3ccccc3OC)n2n1 [Example 531, 4-(1-{3-Methoxy-4-[7-(2-methoxy-phenyl)-pyrrolo[2,1-f][1,2,4]triazin-2-ylamino]-phenyl}-piperidin-4-yl)-piperazine-1-carboxylic acid benzyl ester]	100 to 1000 nM	< 100 nM		
CCS(=O)(=O)Nc1cccc(-c2ccc3cnc(Nc4ccc(N5CCOCC5)cc4)nn23)c1 [Example 416, Ethanesulfonic acid {3-[2-(4-morpholin-4-yl-phenylamino)-pyrrolo[2,1-f][1,2,4]triazin-7-yl]-phenyl}-amide]			< 100 nM	100 to 1000 nM
COc1cc(C2CCN(CCO)CC2)ccc1Nc1ncc2ccc(-c3cccc4c3OCC4)n2n1 [Example 702, 2-(4-{4-[7-(2,3-Dihydro-benzofuran-7-yl)-pyrrolo[2,1-f][1,2,4]triazin-2-ylamino]-3-methoxy-phenyl}-piperidin-1-yl)-ethanol]	100 to 1000 nM	< 100 nM		
CS(=O)(=O)c1ccc(-c2ccc3cnc(Nc4cccc(N5CCN(CCO)CC5)c4)nn23)cc1 [Example 181, 2-(4-{3-[7-(4-Methanesulfonyl-phenyl)-pyrrolo[2,1-f][1,2,4]triazin-2-ylamino]-phenyl}-piperazin-1-yl)-ethanol]			< 100 nM	100 to 1000 nM
C[C@@H](O)CN1CCN(c2ccc(Nc3ncc4ccc(-c5cccc(S(=O)(=O)NC(C)(C)C)c5)n4n3)cc2)CC1 [Example 426, N-tert-Butyl-3-(2-{4-[4-((R)-2-hydroxy-propyl)-piperazin-1-yl]-phenylamino}-pyrrolo[2,1-f][1,2,4]triazin-7-yl)-benzenesulfonamide]			< 100 nM	100 to 1000 nM
CN1CCN(c2ccc(Nc3ncc4ccc(-c5cccc(N(C)S(C)(=O)=O)c5)n4n3)cc2)CC1 [Example 419, N-Methyl-N-(3-{2-[4-(4-methyl-piperazin-1-yl)-phenylamino]-pyrrolo[2,1-f][1,2,4]triazin-7-yl}-phenyl)-methanesulfonamide]			< 100 nM	100 to 1000 nM
COc1cc(N2CCC(N3CCOCC3)CC2)ccc1Nc1ncc2ccc(-c3ccccc3NS(C)(=O)=O)n2n1 [Example 1450, N-(2-{2-[2-Methoxy-4-(4-morpholin-4-yl-piperidin-1-yl)-phenylamino]-pyrrolo[2,1-f][1,2,4]triazin-7-yl}-phenyl)-methanesulfonamide]			100 to 1000 nM	100 to 1000 nM
COc1cc(N2CCN(C)CC2)ccc1Nc1ncc2ccc(-c3cccc(S(C)(=O)=O)c3)n2n1 [Example 76, [7-(3-Methanesulfonyl-phenyl)-pyrrolo[2,1-f][1,2,4]triazin-2-yl]-[2-methoxy-4-(4-methyl-piperazin-1-yl)-phenyl]-amine]			< 100 nM	< 100 nM
O=C(c1ccc(-c2ccc3cnc(Nc4ccc(N5CCOCC5)cc4)nn23)cc1)N1CCOCC1 [Example 14, Morpholin-4-yl-{4-[2-(4-morpholin-4-yl-phenylamino)-pyrrolo[2,1-f][1,2,4]triazin-7-yl]-phenyl}-methanone]			< 100 nM	100 to 1000 nM
Cc1nn(C)cc1-c1ccc2cnc(Nc3ccc(N4CCN(C)CC4)cc3)nn12 [Example 1229, [7-(1,3-Dimethyl-1H-pyrazol-4-yl)-pyrrolo[2,1-f][1,2,4]triazin-2-yl]-[4-(4-methyl-piperazin-1-yl)-phenyl]-amine]	< 100 nM	100 to 1000 nM		
CN1CCN(c2ccc(Nc3ncc4ccc(-c5cccc(N6CCNCC6)c5)n4n3)cc2)CC1 [Example 1169, [4-(4-Methyl-piperazin-1-yl)-phenyl]-[7-(3-piperazin-1-yl-phenyl)-pyrrolo[2,1-f][1,2,4]triazin-2-yl]-amine]	< 100 nM	100 to 1000 nM		
COc1ccc(-c2ccc3cnc(Nc4ccc5c(c4)N(C(C)=O)CCCC5)nn23)cn1 [Example 631, 1-{8-[7-(6-Methoxy-pyridin-3-yl)-pyrrolo[2,1-f][1,2,4]triazin-2-ylamino]-2,3,4,5-tetrahydro-benzo[b]azepin-1-yl}ethanone]	< 100 nM	> 10000 nM		
CN1C(=O)Cc2cc(Nc3ncc4ccc(-c5ccc(S(C)(=O)=O)cc5)n4n3)ccc21 [Example 373, 5-[7-(4-Methanesulfonyl-phenyl)-pyrrolo[2,1-f][1,2,4]triazin-2-ylamino]-1-methyl-1,3-dihydro-indol-2-one]			< 100 nM	1000 to 10000 nM
COCCN1CC[C@](O)(c2ccc(Nc3ncc4ccc(-c5ccccc5N(C)S(C)(=O)=O)n4n3)c(OC)c2)[C@@H](O)C1 (racemic) [Example 846, (±)-N-[2-(2-{4-[(3S,4S)-3,4-Dihydroxy-1-(2-methoxy-ethyl)-piperidin-4-yl]-2-methoxy-phenylamino}-pyrrolo[2,1-f][1,2,4]triazin-7-yl)-phenyl]-N-methyl-methanesulfonamide]	100 to 1000 nM	< 100 nM		
C=Cc1cc(-c2ccccc2OC)n2nc(Nc3ccc(N4CCN(C)CC4)cc3)ncc12 [Example 103, [7-(2-Methoxy-phenyl)-5-vinyl-pyrrolo[2,1-f][1,2,4]triazin-2-yl]-[4-(4-methyl-piperazin-1-yl)-phenyl]-amine]			< 100 nM	100 to 1000 nM
COc1cc(C2CCN(C3COC3)CC2)ccc1Nc1ncc2ccc(-c3ccccc3N(C)S(C)(=O)=O)n2n1 [Example 828, N-(2-{2-[2-Methoxy-4-(1-oxetan-3-yl-piperidin-4-yl)-phenylamino]-pyrrolo[2,1-f][1,2,4]triazin-7-yl}-phenyl)-N-methyl-methanesulfonamide]	1000 to 10000 nM	< 100 nM		
CN1CCCC1COc1cc(Nc2ncc3ccc(-c4cccc(S(=O)(=O)NC(C)(C)C)c4)n3n2)ccc1Cl (stereo not drawn) [Example 1009, N-tert-Butyl-3-{2-[4-chloro-3-(1-methyl-pyrrolidin-2-ylmethoxy)-phenylamino]-pyrrolo[2,1-f][1,2,4]triazin-7-yl}-benzenesulfonamide]	< 100 nM	100 to 1000 nM		
COc1ccccc1-c1ccc2cnc(Nc3cnn(C4CCNCC4)c3)nn12 [Example 716, 4-{4-[7-(2-Methoxy-phenyl)-pyrrolo[2,1-f][1,2,4]triazin-2-ylamino]-pyrazol-1-yl}-piperidine]	< 100 nM	< 100 nM		
